Reference: patent US20240269066A1, “USE OF CYP450 INHIBITOR IN INHIBITING OR KILLING MITES AND TREATING XEROPHTHALMIA” (PRECVISION BIOTECHNOLOGIES LTD., priority 2021, published 2024)
Counter-ions that a name gives are not always drawn.

Tested on: Demodex
Test: Acaricidal experiment: in vitro culture of Demodex with compound solutions, time to death of mites
Details: 50 μl, 20° C., 96% humidity
Protocol: In this study, Demodex was collected from patients diagnosed with ocular Demodex infection. Those meeting the inclusion criteria would be enrolled after an informed conversation and signing an informed consent form.
Demodex detection was performed according to the conventional eyelash microscopic examination method. 3 eyelashes were extracted from each eyelid, and a total of 12 eyelashes were extracted. The extracted eyelashes were immediately placed on a glass slide, and one piece of each three eyelashes was placed under an ordinary light microscope for observation. Demodex at all stages were counted and classified according to morphology (specific criteria were: Demodex brevis at a head-to-body ratio of 1:1 and Demodex folliculorum at a head-to-body ratio of 1:3 to 1:4). Only adults that were fully exposed to the field of view were taken as subjects (larvae and eggs were not considered as subjects since they were more fragile in early life).
Based on the above detection of Demodex, 50 μl of different solutions were added to each slide, and the survival of the worms was observed every 1 hour. The death was judged by observing whether the worms were active (body, limbs, or the like) under a microscope. Two skilled Demodex-related experimenters observed and judged separately during the experiment. If the judgment results were different, the third skilled experimenter was asked to make an independent judgment. The culture in vitro was performed in a climate chamber at 20° C. and 96% humidity. Slides were transported in a humid chamber under observation and the solution was added appropriately to ensure high humidity before vacuoles appeared on solution evaporation.

COc1c2occc2cc2ccc(=O)oc12 [Methoxsalen]
Average survival time of mites (compound 10 mg/mL in 0.9% NaCl): 18 h

CCc1ccc(C)c2ccc(C)c-2c1 [Chamazulene]
Average survival time of mites (compound 10 mg/mL in 0.9% NaCl): 11.49 ± 3.93 h

Fc1ccc([C@@H]2CCNC[C@H]2COc2ccc3c(c2)OCO3)cc1 [Paroxetine]
Average survival time of mites (compound 1 mg/mL in 0.9% NaCl): 2.44 ± 2.04 h

C=C[C@H]1C[N@@]2CC[C@H]1C[C@@H]2[C@@H](O)c1ccnc2ccc(OC)cc12 [Quinidine sulfate]
Average survival time of mites (compound 1 mg/mL in 0.9% NaCl): 8.33 ± 4.02 h
Average survival time of mites (compound 5 mg/mL in 0.9% NaCl): 5.35 ± 2.09 h
Average survival time of mites (compound 10 mg/mL in 0.9% NaCl): 5 h

C[C@@H]1CC[C@H]2C(C)(C)[C@H]3C[C@@]12CC[C@@]3(C)O [Cedrol]
Average survival time of mites (compound 10 mg/mL in 0.9% NaCl): <20.04 ± 1.84 h

alpha-bisabolol
Average survival time of mites (compound 10 mg/mL in 0.9% NaCl): 7.60 ± 2.60 h

Cc1ncc([N+](=O)[O-])n1CCO [Metronidazole]
Average survival time of mites (compound 10 mg/mL in 0.9% NaCl): 67 h

Cc1cc(O)c(C(=O)CCC(C)C)c(=O)o1 [Pogostone]
Average survival time of mites (compound 10 mg/mL in 0.9% NaCl): 1.90 ± 1.06 h

CC(=O)N1CCN(c2ccc(OCC3COC(Cn4ccnc4)(c4ccc(Cl)cc4Cl)O3)cc2)CC1 (stereo not drawn) [Ketoconazole]
Average survival time of mites (compound 10 mg/mL in 0.9% NaCl): 97 h

S=P(N1CC1)(N1CC1)N1CC1 [Thiotepa]
Average survival time of mites (compound 10 mg/mL in 0.9% NaCl): 22 h

CC12CC3CC(C)(C1)CC(N)(C3)C2 [Memantine HCl]
Average survival time of mites (compound 10 mg/mL in 0.9% NaCl): 17 h

COC(=O)[C@H](c1ccccc1Cl)N1CCc2sccc2C1 [Clopidogrel Bisulfate]
Average survival time of mites (compound 10 mg/mL in 0.9% NaCl): 23 h

CCOC(=O)C1=C(C)NC(C)=C(C(=O)OC)C1c1cccc(Cl)c1Cl (stereo not drawn) [Felodipine]
Average survival time of mites (compound 10 mg/mL in 0.9% NaCl): 71 h

CC(C)(O)c1ccccc1CC[C@@H](SCC1(CC(=O)O)CC1)c1cccc(/C=C/c2ccc3ccc(Cl)cc3n2)c1 [Montelukast Sodium]
Average survival time of mites (compound 10 mg/mL in 0.9% NaCl): 5 h

C[C@@H](c1ncncc1F)[C@](O)(Cn1cncn1)c1ccc(F)cc1F [Voriconazole]
Average survival time of mites (compound 10 mg/mL in 0.9% NaCl): 72 h

Nc1ccc(S(=O)(=O)Nc2ccnn2-c2ccccc2)cc1 [Sulfaphenazole]
Average survival time of mites (compound 10 mg/mL in 0.9% NaCl): 70 h

Cc1ccccc1C(OCCN(C)C)c1ccccc1 (stereo not drawn) [Orphenadrine Citrate]
Average survival time of mites (compound 1 mg/mL in 0.9% NaCl): ~7.09 ± 1.44 h
Average survival time of mites (compound 10 mg/mL in 0.9% NaCl): 4.35 ± 2.05 h

CCC(C)n1ncn(-c2ccc(N3CCN(c4ccc(OCC5COC(Cn6cncn6)(c6ccc(Cl)cc6Cl)O5)cc4)CC3)cc2)c1=O (stereo not drawn) [Itraconazole]
Average survival time of mites (compound 10 mg/mL in 0.9% NaCl): 96 h

CO[C@@H]1[C@H](N(C)C(=O)c2ccccc2)C[C@H]2O[C@]1(C)n1c3ccccc3c3c4c(c5c6ccccc6n2c5c31)C(=O)NC4 [Midostaurin]
Average survival time of mites (compound 10 mg/mL in 0.9% NaCl): 42 h

N#Cc1ccc(C(c2ccc(C#N)cc2)n2cncn2)cc1 [Letrozole]
Average survival time of mites (compound 10 mg/mL in 0.9% NaCl): 72 h

O=c1c(O)c(-c2ccc(O)c(O)c2)oc2cc(O)cc(O)c12 [Quercetin]
Average survival time of mites (compound 10 mg/mL in 0.9% NaCl): 4 h

CN/C(=N/CCSCc1nc[nH]c1C)NC#N [Cimetidine]
Average survival time of mites (compound 10 mg/mL in 0.9% NaCl): 53 h

Clc1ccccc1C(c1ccccc1)(c1ccccc1)n1ccnc1 [Clotrimazole]
Average survival time of mites (compound 0.3 mg/mL in 0.9% NaCl): ~33.01 h
Average survival time of mites (compound 3 mg/mL in 0.9% NaCl): ~23.63 h

CN[C@H]1CC[C@@H](c2ccc(Cl)c(Cl)c2)c2ccccc21 [Sertraline HCl]
Average survival time of mites (compound 1 mg/mL in 0.9% NaCl): 9.07 ± 6.72 h
Average survival time of mites (compound 10 mg/mL in 0.9% NaCl): 2.50 ± 1.37 h

N[C@@H]1C[C@H]1c1ccccc1 [Tranylcypromine HCl]
Average survival time of mites (compound 1 mg/mL in 0.9% NaCl): 7.44 ± 6.07 h
Average survival time of mites (compound 3 mg/mL in 0.9% NaCl): 5.66 ± 0.91 h
Average survival time of mites (compound 10 mg/mL in 0.9% NaCl): 2.89 ± 1.08 h
Average survival time of mites (compound 30 mg/mL in 0.9% NaCl): 2.24 ± 1.32 h

COc1cc(/C=C/C(=O)CC(=O)/C=C/c2ccc(O)c(OC)c2)ccc1O [Curcumin]
Average survival time of mites (compound 10 mg/mL in 0.9% NaCl): 45 h

COc1cc(N)c(Cl)cc1C(=O)NC1CCN(CCCOc2ccc(F)cc2)CC1OC (stereo not drawn) [Cisapride]
Average survival time of mites (compound 10 mg/mL in 0.9% NaCl): 72 h

C=C1CC[C@@]23C[C@@H]1C(C)(C)[C@@H]2CC[C@H]3C [β-cedrene]
Average survival time of mites (compound 10 mg/mL in 0.9% NaCl): 42.57 ± 8.89 h
